Activity calls are given as the source filed them.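 How the source made its calls: active means EC50 no more than a set limit of log units above the highest dose; inactive means the rest.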

The EC50 is the concentration giving half of the maximal effect.

The assay deals with S. pyogenes SKKanGAS, kanamycin survival, BacTiterGlo, 6 h. The assay can be described thus: SKKanGAS survival reduction under kanamycin, dose response, streptokinase promoter inhibitor project, SKKanGAS strain, luminescence, dose confirmation (AID 1902).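 Further: lower survival reflects blocked streptokinase promoter driving kanamycin resistance gene.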
Take `Cc1ccc(OCCSc2nc(NC(C)C)nc(NC(C)C)n2)cc1`: the EC50 was 4.4 µM.

For `Cc1onc(-c2ccccc2)c1C(=O)NC(=S)NNC(=O)c1ccc(O)cc1`, the EC50 was 0.568 µM.

Regarding `CC1(C(=O)NC(=S)NNC(=O)c2ccncc2)CCCCC1`, the EC50 is 1.1 µM.

In the case of `c1ccc2c(c1)nc(Nc1ccc(N3CCCCC3)cc1)c1nncn12`, the concentration giving a half-maximal response (EC50) was 6.03 µM.

`Cc1sc2cc3c(c(C(=O)c4ccccc4)[n+]2c1C)-c1cccc2cccc-3c12`: the EC50 was 6.66 µM.

In the case of `C[C@H]1[C@H](C)CC[C@]2(C(=O)O)CC[C@]3(C)C(=CC[C@@H]4[C@@]5(C)CC[C@H](O)C(C)(C)[C@@H]5CC[C@]43C)[C@H]12`, the EC50 is 1.79 µM.

Regarding `Cc1nc2ccccc2c(=O)n1/N=C/c1cc(Br)cc(Br)c1O`, the EC50 is 3.04 µM.

`C/C(=N/Nc1nc(-c2ccccc2F)nc2ccccc12)c1ccccc1O`: the EC50 was 8.27 µM.

Regarding `Cc1ccc2nc(N3C(=O)C(O)=C(C(=O)c4cc5ccccc5o4)C3c3cccs3)sc2c1` (configuration not stated), the EC50 is 1.22 µM.

Take `CC(C)C[C@H](NC(=O)c1[nH]cnc1C(=O)N[C@@H](Cc1ccccc1)C(=O)OC(C)(C)C)C(=O)OC(C)(C)C`: the EC50 is 2.1 µM.

As to `C/C(=N\NC(=O)c1nnn(-c2nonc2N)c1CN(C)c1ccccc1)c1ccccc1O`, the EC50 was 2.75 µM.

On to `O=C(NC(=S)NNC(=O)c1ccc(Cl)cc1Cl)c1cccnc1`, for which the EC50 was 3.07 µM.

For the molecule `CN1C(=O)/C(=C/c2ccccc2F)Sc2ccc(C(=O)NCC3CCCO3)cc21` (configuration not stated), the EC50 was 1.53 µM.

`Cc1csc(Nc2ccc(Cl)cc2)[n+]1-c1ccc(Cl)cc1`: the EC50 is 11.1 µM.

As to `N#Cc1nc(-c2ccccc2Cl)oc1N1CCN(C(=O)c2ccco2)CC1`, the EC50 was > 15 µM (inactive).

In the case of `C/C(=N\NC(=O)c1ccc(Cl)c(Cl)c1)c1ccc(Br)s1`, the concentration giving a half-maximal response (EC50) is 0.563 µM.

Turning to `Cc1ccc(CN(C(=O)c2ccco2)C2CCS(=O)(=O)C2)cc1` (configuration not stated), the EC50 was > 15 µM (inactive).

On to `CCN(c1ccc(OC)cc1)S(=O)(=O)c1nnc(NC(=O)c2ccccc2Cl)s1`, for which the EC50 is 3.31 µM.

Turning to `CCSc1nnc(NC(=O)c2nc(-c3ccccc3)n(-c3ccccc3)n2)s1`, the EC50 was 3.49 µM.

Turning to `COc1cccc(/C=C(/C(=O)OCC(=O)NC2CCCC(C)C2C)c2ccccc2)c1` (configuration not stated), the EC50 is 8.45 µM.

As for `Cc1ccc(Cc2cnc(N3C(=N)SC(C)C3=O)s2)cc1` (configuration not stated), the EC50 was 0.298 µM.

Consider `C=CCn1c(O)c(C(C)=Nc2ccc(N(CC)CC)cc2)c(=O)[nH]c1=O`, for which the EC50 is 5.73 µM.

Consider `O=C(Nc1nc(-c2cc(Cl)sc2Cl)cs1)c1cccs1`, for which the EC50 is 8.68 µM.

Take `CCN(CC)S(=O)(=O)c1cccc(C(=O)Nc2nc3cc4c(cc3s2)OCCO4)c1`: the EC50 was 0.976 µM.

Take `O=C(N/N=C/c1cc([N+](=O)[O-])ccc1O)C(O)(c1ccccc1)c1ccccc1`: the EC50 is 6.17 µM.

In the case of `C=C(C)COc1ccc(-c2n[nH]c(C)c2-c2ccccc2)c(O)c1`, the EC50 was 2.4 µM.

In the case of `CC(C)c1ccc(NC(=O)c2cc(S(=O)(=O)NCC3COc4ccccc4O3)ccc2F)cc1` (configuration not stated), the EC50 is 5.37 µM.

Turning to `CCCCn1c(NS(=O)(=O)c2ccccc2)c(S(=O)(=O)c2ccc(C)cc2)c2nc3ccccc3nc21`, the EC50 is 3.43 µM.

With `Cc1ccc(NC(=O)c2cccc(OCc3c(C)noc3C)c2)cc1S(=O)(=O)Nc1ccccc1Cl`, the EC50 is 7.39 µM.

As to `Cc1c(Cl)cccc1NC(=S)NCCC(c1ccccc1)c1ccccc1`, the EC50 is 9.25 µM.

In the case of `CCCCCCn1c(=O)c(C(=O)Nc2cnccn2)c(O)c2ccccc21`, the EC50 is 2.98 µM.

In the case of `Nc1nc(-c2ccccn2)nc(N)c1Cc1ccc(Cl)cc1Cl`, the EC50 is 5.03 µM.

Turning to `Cc1cc(Oc2ccc(-c3ccccc3)cc2)nc(N2CCOCC2)n1`, the EC50 is 5.71 µM.

Take `CCOC(=O)c1ccc(NC(=O)c2nc[nH]c2C(=O)NCCCCCNC(=O)OC(C)(C)C)cc1`: the concentration giving a half-maximal response (EC50) is 2.83 µM.

Take `Cc1cc(C(C#N)c2ccc(Cl)cc2)c(Cl)cc1NC(=O)c1cc(I)cc(I)c1O` (configuration not stated): the EC50 was 0.082 µM.

For `Cc1onc(-c2c(Cl)cccc2Cl)c1C(=O)NC1C(=O)N2C1SC(C)(C)C2C(=O)O` (configuration not stated), the EC50 was under 0.06 µM.

On to `COc1ccc(C(=O)NNC(=S)NC(=O)c2ccc(F)cc2)cc1Br`, for which the EC50 is 0.127 µM.

In the case of `Cc1ccc(NC(=O)CN2C(=O)S/C(=C/c3ccc(-c4cc(C(=O)O)ccc4C)o3)C2=O)cc1C`, the EC50 is 2.11 µM.

Take `Cc1ccc(-c2csc(NC(=O)c3ccc([N+](=O)[O-])o3)n2)cc1`: the EC50 is 3.42 µM.

Turning to `O=C(Oc1ccc(NC2=C(Cl)C(=O)c3ccccc3C2=O)cc1)c1ccc([N+](=O)[O-])cc1`, the EC50 was 7.48 µM.

On to `CCOc1ccc(Nc2nc(N3CCCCC3)nc(N3CCCCC3)n2)cc1`, for which the EC50 was 0.65 µM.

Turning to `Brc1ccc(Nc2ncnc3[nH]ncc23)cc1`, the EC50 was 8.45 µM.

On to `CCn1nc(C)cc1-c1nnc(Sc2ncc([N+](=O)[O-])s2)n1C`, for which the EC50 is 6.51 µM.

`CCc1ccc(/C=C2/SC(=S)N(CC(=O)Nc3nc4ccccc4s3)C2=O)cc1`: the EC50 was 2.52 µM.

As for `O=C1CCCc2oc3c(cc(NS(=O)(=O)c4ccc5c6c(cccc46)C(=O)N5)c4ccccc43)c21`, the EC50 is 4.02 µM.

As to `CCCN(CCC)S(=O)(=O)c1ccc(C(=O)Nc2nnc(COC)o2)cc1`, the EC50 was 5 µM.

Consider `S=C(NCc1cccs1)Nc1cc(Cl)cc(Cl)c1`, for which the EC50 was 7.18 µM.

For the molecule `O=C(COc1ccc(F)cc1)Nc1nc(-c2ccccn2)cs1`, the EC50 is 5.55 µM.

With `Nc1c(S(=O)(=O)c2ccccc2)c2nc3ccccc3nc2n1/N=C/c1cccc(O)c1`, the EC50 was 5.22 µM.

Turning to `CCCCCCN1N=C(C)C(C(=O)c2ccc(Cl)cc2)C1=O` (configuration not stated), the EC50 was 1.51 µM.

Take `CCC(Oc1ccccc1)C(=O)Nc1ccccc1N1CCCCC1` (configuration not stated): the EC50 was 3.3 µM.

Regarding `O=C(/C=C/c1ccc([N+](=O)[O-])o1)NNC(=O)c1ccc(F)cc1`, the EC50 was 1.8 µM.

As for `O=C(NC(=S)NNC(=O)c1ccco1)c1ccc(Br)cc1`, the EC50 is 0.772 µM.

Consider `COc1ccc(-c2cc(-c3ccc(Cl)cc3)n[nH]2)c(O)c1`, for which the EC50 was 8.75 µM.

As for `Cc1ccc(Cn2cc(/C=N/NC(=O)Cc3nnc(NC(=O)c4ccc(C)cc4)s3)c3ccccc32)cc1`, the EC50 was 4.24 µM.

As to `Cc1c(C(=O)Nc2ccc3c(c2)OCCO3)sc2nc(-c3ccccc3)cn12`, the EC50 is 2.52 µM.

For the molecule `Cc1c(C(=O)Nc2ccc(Oc3ccccc3)cc2)sc2nc3n(c(=O)c12)CCC3`, the EC50 is 6.21 µM.

Turning to `CCCCC(=O)O[C@H]1CC[C@H]2[C@@H]3CCc4cc(O)ccc4[C@H]3CC[C@]12C`, the EC50 was 3.83 µM.

As for `CC1COc2c(N3CCN(C)CC3)c(F)cc3c(=O)c(C(=O)O)cn1c23` (configuration not stated), the EC50 is 3.69 µM.

`Cc1csc2c(N3CCN(C(=O)Nc4ccc(Cl)c(Cl)c4)CC3)ncnc12`: the EC50 is 2.99 µM.

Turning to `CC(=O)c1ccc(NC(=S)Nc2ccc(Br)c(Cl)c2)cc1`, the EC50 was 6.2 µM.

In the case of `CCCOc1ccc(C(=O)NNC(=S)NC(=O)c2ccccc2)cc1`, the EC50 is 0.217 µM.

As to `S=c1nc(SCc2ccccc2)[nH]c2ccccc12`, the EC50 is 3.19 µM.

Take `Oc1cccc(-c2nc3ccc4ccccc4c3c3c2CCC3)c1`: the EC50 is 8.4 µM.

Consider `CCCC(=O)NC(c1ccc2c(c1)OCO2)c1cc(Cl)c2cccnc2c1O` (configuration not stated), for which the EC50 was 1.17 µM.

In the case of `C=CCSc1nsc(NC(=O)Nc2ccc(F)cc2)n1`, the EC50 is 3.7 µM.

As for `CCCSc1nsc(NC(=O)Nc2ccc(F)cc2F)n1`, the EC50 was 5.66 µM.

The values above are taken from PubChem BioAssay AID1902 (Broad Institute, 2009).
